Results as given in ChEMBL document CHEMBL1275576, “In vitro activity of tomopenem (CS-023/RO4908463) against anaerobic bacteria” (Antimicrob Agents Chemother, 2009).

How the values were obtained:
Assay type in all cases: functional
[1] = system: Fusobacterium necrophorum; assay: Antimicrobial activity against Fusobacterium necrophorum ATCC 25286 by agar dilution method in presence of 5% laked sheep blood
[2] = system: Cutibacterium acnes; assay: Antimicrobial activity against Propionibacterium acnes ATCC 11828 by agar dilution method in presence of 5% laked sheep blood
[3] = system: Desulfovibrio desulfuricans; assay: Antimicrobial activity against Desulfovibrio desulfuricans ATCC 29577 by agar dilution method in presence of 5% laked sheep blood
[4] = system: Staphylococcus saccharolyticus; assay: Antimicrobial activity against Staphylococcus saccharolyticus ATCC 14953 by agar dilution method in presence of 5% laked sheep blood
[5] = system: Prevotella intermedia; assay: Antimicrobial activity against Prevotella intermedia ATCC 25611 by agar dilution method in presence of 5% laked sheep blood
[6] = system: Limosilactobacillus fermentum; assay: Antimicrobial activity against Lactobacillus fermentum JCM 1173 by agar dilution method in presence of 5% laked sheep blood
[7] = system: Bacteroides fragilis; assay: Antimicrobial activity against Bacteroides fragilis GAI 5562 by agar dilution method in presence of 5% laked sheep blood
[8] = system: Eggerthella lenta; assay: Antimicrobial activity against Eggerthella lenta ATCC 25559 by agar dilution method in presence of 5% laked sheep blood
[9] = system: Prevotella corporis; assay: Antimicrobial activity against Prevotella corporis GAI 91000 by agar dilution method in presence of 5% laked sheep blood
[10] = system: Bifidobacterium pseudolongum; assay: Antimicrobial activity against Bifidobacterium pseudolongum ATCC 25526 by agar dilution method in presence of 5% laked sheep blood
[11] = system: Limosilactobacillus reuteri; assay: Antimicrobial activity against Lactobacillus reuteri JCM 1112 by agar dilution method in presence of 5% laked sheep blood
[12] = system: Bacteroides eggerthii DSM 20697; assay: Antimicrobial activity against Bacteroides eggerthii ATCC 27754 by agar dilution method in presence of 5% laked sheep blood
[13] = system: Lacticaseibacillus casei; assay: Antimicrobial activity against Lactobacillus casei subsp. casei JCM 1134 by agar dilution method in presence of 5% laked sheep blood
[14] = system: Clostridioides difficile; assay: Antimicrobial activity against Clostridium difficile GAI 10029 by agar dilution method in presence of 5% laked sheep blood
[15] = system: Veillonella parvula; assay: Antimicrobial activity against Veillonella parvula ATCC 10790 by agar dilution method in presence of 5% laked sheep blood
[16] = system: Prevotella denticola; assay: Antimicrobial activity against Prevotella denticola GAI 5490 by agar dilution method in presence of 5% laked sheep blood
[17] = Antimicrobial activity against Bifidobacterium adolescentis ATCC 15703 by agar dilution method in presence of 5% laked sheep blood
[18] = system: Bacteroides uniformis; assay: Antimicrobial activity against Bacteroides uniformis ATCC 8492 by agar dilution method in presence of 5% laked sheep blood
[19] = system: Prevotella buccae; assay: Antimicrobial activity against Prevotella buccae ATCC 33574 by agar dilution method in presence of 5% laked sheep blood; details: Segatella buccae
[20] = system: Bilophila wadsworthia; assay: Antimicrobial activity against Bilophila wadsworthia WAL 7959 by agar dilution method in presence of 5% laked sheep blood
[21] = system: Campylobacter gracilis; assay: Antimicrobial activity against Campylobacter gracilis JCM 8538 by agar dilution method in presence of 5% laked sheep blood
[22] = system: Bifidobacterium breve; assay: Antimicrobial activity against Bifidobacterium breve ATCC 15700 by agar dilution method in presence of 5% laked sheep blood
[23] = system: Lactobacillus salivarius; assay: Antimicrobial activity against Lactobacillus salivarius subsp. salivarius JCM 1231 by agar dilution method in presence of 5% laked sheep blood; details: Ligilactobacillus salivarius
[24] = system: Anaerococcus prevotii; assay: Antimicrobial activity against Anaerococcus prevotii ATCC 9321 by agar dilution method in presence of 5% laked sheep blood
[25] = system: Atopobium parvulum; assay: Antimicrobial activity against Atopobium parvulum VPI 0546 by agar dilution method in presence of 5% laked sheep blood; details: Lancefieldella parvula
[26] = system: Parvimonas micra; assay: Antimicrobial activity against Parvimonas micra VPI 5464-1 by agar dilution method in presence of 5% laked sheep blood
[27] = system: Streptococcus constellatus; assay: Antimicrobial activity against Streptococcus constellatus ATCC 27923 by agar dilution method in presence of 5% laked sheep blood
[28] = system: Prevotella bivia; assay: Antimicrobial activity against Prevotella bivia ATCC 29303 by agar dilution method in presence of 5% laked sheep blood; details: DSM 20514
[29] = system: Bacteroides fragilis; assay: Antimicrobial activity against carbapenemase-producing Bacteroides fragilis GAI 30144 by agar dilution method in presence of 5% laked sheep blood
[30] = system: Porphyromonas asaccharolytica; assay: Antimicrobial activity against Porphyromonas asaccharolyticus ATCC 25260 by agar dilution method in presence of 5% laked sheep blood; details: DSM 20707
[31] = system: Capnocytophaga ochracea; assay: Antimicrobial activity against Capnocytophaga ochracea GAI 5586 by agar dilution method in presence of 5% laked sheep blood
[32] = system: Paeniclostridium sordellii; assay: Antimicrobial activity against Clostridium sordellii ATCC 9714 by agar dilution method in presence of 5% laked sheep blood; details: Paraclostridium sordellii
[33] = system: Clostridium septicum; assay: Antimicrobial activity against Clostridium septicum ATCC 12464 by agar dilution method in presence of 5% laked sheep blood
[34] = system: Propionibacterium granulosum; assay: Antimicrobial activity against Propionibacterium granulosum ATCC 25564 by agar dilution method in presence of 5% laked sheep blood; details: Cutibacterium granulosum
[35] = system: Bacteroides fragilis; assay: Antimicrobial activity against carbapenemase-producing Bacteroides fragilis GAI 30079 by agar dilution method in presence of 5% laked sheep blood
[36] = system: Bacteroides fragilis; assay: Antimicrobial activity against Bacteroides fragilis GAI 0558 by agar dilution method in presence of 5% laked sheep blood
[37] = system: Bacteroides fragilis; assay: Antimicrobial activity against Bacteroides fragilis NCTC 10581 by agar dilution method in presence of 5% laked sheep blood
[38] = system: Bifidobacterium bifidum; assay: Antimicrobial activity against Bifidobacterium bifidum JCM 1255 by agar dilution method in presence of 5% laked sheep blood
[39] = system: Peptoniphilus indolicus; assay: Antimicrobial activity against Peptoniphilus indolicus GAI 0915 by agar dilution method in presence of 5% laked sheep blood
[40] = Antimicrobial activity against Finegoldia magna ATCC 29328 by agar dilution method in presence of 5% laked sheep blood
[41] = system: Bacteroides thetaiotaomicron; assay: Antimicrobial activity against Bacteroides thetaiotaomicron ATCC 29741 by agar dilution method in presence of 5% laked sheep blood
[42] = system: Sutterella wadsworthensis; assay: Antimicrobial activity against Sutterella wadsworthensis ATCC 51579 by agar dilution method in presence of 5% laked sheep blood
[43] = Antimicrobial activity against Bifidobacterium longum subsp. longum ATCC 15707 by agar dilution method in presence of 5% laked sheep blood
[44] = system: Bacteroides fragilis; assay: Antimicrobial activity against Bacteroides fragilis GAI 10150 by agar dilution method in presence of 5% laked sheep blood
[45] = system: Prevotella oris; assay: Antimicrobial activity against Prevotella oris ATCC 33573 by agar dilution method in presence of 5% laked sheep blood; details: Segatella oris
[46] = system: Phocaeicola vulgatus; assay: Antimicrobial activity against Bacteroides vulgatus GAI 0673 by agar dilution method in presence of 5% laked sheep blood

Measured: MIC

C[C@@H](O)[C@H]1C(=O)N2C(C(=O)O)=C(S[C@H]3C[C@@H](C(=O)N4CC[C@H](NC(=O)CNC(=N)N)C4)N(C)C3)[C@H](C)[C@H]12 [TOMOPENEM]
1 µg/mL: [2] | [13] | [22] | [36]
0.125 µg/mL: [6] | [10] | [11] | [12] | [17] | [20] | [24] | [26] | [37] | [40] | [45]
0.25 µg/mL: [3] | [7] | [18] | [19] | [27] | [46]
> 128 µg/mL: [29] | [35]
0.03 µg/mL: [15] | [33]
2 µg/mL: [14]
≤ 0.015 µg/mL: [1] | [30] | [32] | [39]
0.5 µg/mL: [8] | [23] | [25] | [28] | [34] | [41] | [42] | [43]
4 µg/mL: [44]
0.06 µg/mL: [4] | [5] | [9] | [16] | [21] | [31] | [38]
